One data set addresses T1, CYP4A11 (Homo sapiens, UniProt Q02928).
T1 sequence (Q02928 5-519): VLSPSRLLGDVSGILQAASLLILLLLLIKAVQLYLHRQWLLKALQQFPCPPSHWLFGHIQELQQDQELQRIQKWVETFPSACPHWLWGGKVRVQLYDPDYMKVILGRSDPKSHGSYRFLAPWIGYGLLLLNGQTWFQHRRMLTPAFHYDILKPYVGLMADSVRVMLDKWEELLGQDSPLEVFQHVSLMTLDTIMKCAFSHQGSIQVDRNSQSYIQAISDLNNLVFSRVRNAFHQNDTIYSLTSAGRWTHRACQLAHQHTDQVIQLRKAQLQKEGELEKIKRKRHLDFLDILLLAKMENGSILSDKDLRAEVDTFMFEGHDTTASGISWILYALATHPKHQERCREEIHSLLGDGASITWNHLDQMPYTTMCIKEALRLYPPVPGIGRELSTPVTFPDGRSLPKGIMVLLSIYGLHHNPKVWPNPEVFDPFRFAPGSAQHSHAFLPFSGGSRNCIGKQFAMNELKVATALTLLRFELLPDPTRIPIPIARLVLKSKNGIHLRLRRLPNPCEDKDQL
As to the kind of experiment: Inhibition of MONACRA demethylation by recombinant CYP4A11. Type of data set: biochemical. Also noted: purchased Gentest (Huntsville, AL), now a part of Discovery Life Sciences lot 2402280; host or cells: insect cells, recombinant baculovirus. To be noted: recombinant CYP4A11 Supersomes; 150 µM MONACRA. The source says: (§1) To probe the role of CYP4A11 and CYP1A2 in MONACRA metabolism by HLM, we employed inhibitory analysis with the use of epalrestat as a specific inhibitor of CYP4A11 [22] and fluvoxamine as a CYP1A2 inhibitor [37]. We explored the effect of the inhibitors on the activity of recombinant CYP1A2 and CYP4A11, as well as the activity of six different preparations of HLM (preparation X347 was not available at the time of the study).
(§2) Figure 12: Effect of epalrestat (A) and fluvoxamine (B) on 3-(6-methoxynaphthalen-2-yl)acrylic acid (MONACRA) demethylation by recombinant CYP1A2 (black) and CYP4A11 (red) and three pooled human liver microsome (HLM) preparations: X263 (green), DNJ (blue), and WGP (brown). Solid lines represent the approximation of the datasets by eqn 1 (in the instances of pure inhibition) or a combination of two hyperbolic equations (in the cases of activation or combined inhibition and activation). All experiments were carried out at 150 µM MONACRA concentration. The datasets shown in the graphs represent the averages of the results of four (fluvoxamine) or two (epalrestat) individual experiments.
Inhibition of MONACRA metabolism by epalrestat and fluvoxamine was studied using the high-throughput assay described above. The substrate concentration was kept constant at 150 µM. Each column of the well plate comprised eight wells with different concentrations of inhibitor complemented with two wells with no inhibitor added (100% activity samples) and two wells with no inhibitor and no NADPH added (‘blank’ samples). […] The resulting dependence of the fractional inhibition on the inhibitor concentration was fitted to a four-parameter logistic equation (Hill equation):
(§3) (1) FI=v0−vi/v0=Amax[I]^N/IC50+[I]^N
IC 50 is the concentration of inhibitor at which the inhibition reaches 50% of its maximal amplitude (A max), and N is the Hill coefficient.

Data set [1] concerns the target T2, pooled human liver microsome (HLM) preparations (Homo sapiens, UniProt Q02928).
T2 sequence (Q02928 5-519): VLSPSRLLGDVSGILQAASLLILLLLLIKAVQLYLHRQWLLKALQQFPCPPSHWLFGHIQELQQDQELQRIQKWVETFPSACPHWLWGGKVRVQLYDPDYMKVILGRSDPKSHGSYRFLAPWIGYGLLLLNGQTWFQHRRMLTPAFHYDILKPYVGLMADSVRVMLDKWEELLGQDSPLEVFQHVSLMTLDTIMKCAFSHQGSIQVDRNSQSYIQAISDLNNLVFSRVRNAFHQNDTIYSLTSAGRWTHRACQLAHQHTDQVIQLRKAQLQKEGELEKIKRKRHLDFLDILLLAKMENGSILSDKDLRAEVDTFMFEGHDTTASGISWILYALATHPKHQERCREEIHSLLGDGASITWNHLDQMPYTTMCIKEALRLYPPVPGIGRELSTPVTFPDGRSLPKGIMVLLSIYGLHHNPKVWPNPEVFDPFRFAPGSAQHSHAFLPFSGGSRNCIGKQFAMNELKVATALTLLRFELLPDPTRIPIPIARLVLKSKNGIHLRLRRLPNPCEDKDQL
As to the kind of experiment: Inhibition of MONACRA demethylation in pooled HLM preparations. Type of data set: biochemical. Conditions: 150 µM MONACRA.
Text: as §1, §2
This study used preparations of pooled HLMs from 50, 150, or 200 donors (mixed gender). The preparations CDN, DNJ, and WGP were INVITROCYP 150-Donor Human Liver Microsomes obtained from BioIVT Corporation (Westbury, NY). Lot EGW is INVITROCYP M-Class 50-Donor HLM procured from the same company. Lots 1,910,096 and 1,210,347 were XTreme 200 Mixed Gender HLM (200 donors) purchased from XenoTech LLC (Kansas City, KS), currently a part of BioIVT. Lot 2,110,263 corresponds to mixed gender HLM from 50 donors from the same company. These lots are referred to herein as X096, X347, and X263, respectively. The supplier of the HLM preparations used in our studies, BioIVT Corporation, has declared to adhere to the regulations of the Department of Health and Human Services for the protection of human subjects (45 CFR §46.116 and §46.117) and Good Clinical Practice, (ICH E6) in obtaining the samples of human tissues used for producing the preparations of human subcellular fractions available from these companies.
Inhibition of MONACRA metabolism by epalrestat and fluvoxamine was studied using the high-throughput assay described above. The substrate concentration was kept constant at 150 µM. Each column of the well plate comprised eight wells with different concentrations of inhibitor complemented with two wells with no inhibitor added (100% activity samples) and two wells with no inhibitor and no NADPH added (‘blank’ samples). […] The fractional inhibition at each inhibitor concentration was determined from the ratio of the reaction rate in the presence of an inhibitor to the rate observed at no inhibitor added. The resulting dependence of the fractional inhibition on the inhibitor concentration was fitted to a four-parameter logistic equation (Hill equation):
as §3
In this equation, F I and vi are the fractional inhibition and the reaction velocity observed at inhibitor concentration [I], v0 is the reaction rate at no inhibitor added, and A max is the maximal amplitude of inhibition. IC 50 is the concentration of inhibitor at which the inhibition reaches 50% of its maximal amplitude (A max), and N is the Hill coefficient.

Substrate in data set [2]: COc1ccc2cc(C=CC(=O)O)ccc2c1
As to the kind of experiment: MONACRA demethylation by recombinant CYP4A11 in Supersomes, high-throughput fluorimetric assay. It is filed as biochemical, human. To be noted: other: CYP4A11 Supersomes, Michaelis–Menten fit, 20 min at 30°C, ± = confidence interval P=0.05. How it is done: Based on these observations, we developed a high-throughput automated assay applicable for studying SSPs of MONACRA metabolism by microsomal P450 enzymes. In this procedure, the incubation mixtures containing an NADPH-generating system and various substrate concentrations are placed in a multiwell plate and preincubated at 30°C in a thermostated shaker. The reaction is started by adding microsomal suspension to the final concentration of 0.3–1 mg/ml of microsomal protein or 0.02–0.1 µM of recombinant P450 enzymes in Supersomes. Following the incubation for 20 min at 30°C, the reaction is quenched by adding trichloroacetic acid (final concentration […]). After supplementing the wells with Na-glycine buffer (pH 10.4, final concentration 2.1 M), the plates are subjected to scanning the fluorescence spectra with excitation at 375 nm. This assay, which is described in detail in Materials and Methods, allows reliable detection of the concentrations of HONACRA as low as 0.1 µM.
We used the high-throughput activity assay described above to probe MONACRA metabolism by 16 human microsomal P450 enzymes, namely CYP1A2, CYP2A6, CYP2B6, CYP2C8, CYP2C9, CYP2C19, CYP2D6, CYP2E1, CYP2J2, CYP3A4, CYP3A5, CYP4A11, CYP4F2, CYP4F3A, CYP4F3B, and CYP4F12. […]

The mark [3] stands for this setting: all studied HLM samples (six preparations).

Read-outs that look alike come from different tables or passages of the source.

With `CC(/C=C1\SC(=S)N(CC(=O)O)C1=O)=C\c1ccccc1` [epalrestat], the IC50 is 1300 nM at CYP4A11; 1.48 ± 0.21 µM in data set [1] (HLM sample CDN, unit not given (µM)); 2.02 ± 1.7 µM in data set [1] (HLM sample DNJ, unit not given (µM)); 2.15 ± 0.52 µM in data set [1] (HLM sample EGW, unit not given (µM)); 2.14 ± 0.94 µM in data set [1] (HLM sample WGP, unit not given (µM)); 5.36 ± 0.13 µM in data set [1] (HLM sample X096, unit not given (µM)). Also, the IC50 in data set [1] (HLM sample X263, unit not given (µM)) was determined as 5.09 ± 1.04 µM; in data set [1] (setting [3]), 3 ± 1.4 µM. The “effect on MONACRA demethylation by CYP4A11” value at CYP4A11 is given as “complete inhibition”. In addition, the “Inhibition (amplitude)” value is 99.7±0.6% in data set [1] (HLM sample CDN); 93.0±2.3% in data set [1] (HLM sample DNJ); 99.8±0.4% in data set [1] (HLM sample EGW); 97.1±5.7% in data set [1] (HLM sample WGP); 93.9±0.7% in data set [1] (HLM sample X096); 100.0% in data set [1] (HLM sample X263). Further, the amplitude of inhibition in data set [1] (setting [3]) was found to be 97.2±2.5.
As for `COCCCC/C(=N\OCCN)c1ccc(C(F)(F)F)cc1` [fluvoxamine], the “effect on MONACRA demethylation by CYP4A11” value on CYP4A11 is listed as “pronounced activation”. The amplitude of inhibition in data set [1] (HLM preparation DNJ) worked out at 69%. Also, the IC50 in data set [1] (HLM preparation DNJ, read-out: IC 50) is 14 µM. In addition, the “effect on MONACRA metabolism in HLM” value in data set [1] (HLM preparations CDN, WGP and X096) is listed as “combination of an inhibitory effect at lower concentrations with an activation that manifests itself as the concentration increases”; in data set [1] (HLM preparations EGW and X263) it was “activation similar to that observed in CYP4A11 Supersomes”.

B1: CYP4A11 (Homo sapiens) (protein)
chain: VLSPSRLLGDVSGILQAASLLILLLLLIKAVQLYLHRQWLLKALQQFPCPPSHWLFGHIQELQQDQELQRIQKWVETFPSACPHWLWGGKVRVQLYDPDYMKVILGRSDPKSHGSYRFLAPWIGYGLLLLNGQTWFQHRRMLTPAFHYDILKPYVGLMADSVRVMLDKWEELLGQDSPLEVFQHVSLMTLDTIMKCAFSHQGSIQVDRNSQSYIQAISDLNNLVFSRVRNAFHQNDTIYSLTSAGRWTHRACQLAHQHTDQVIQLRKAQLQKEGELEKIKRKRHLDFLDILLLAKMENGSILSDKDLRAEVDTFMFEGHDTTASGISWILYALATHPKHQERCREEIHSLLGDGASITWNHLDQMPYTTMCIKEALRLYPPVPGIGRELSTPVTFPDGRSLPKGIMVLLSIYGLHHNPKVWPNPEVFDPFRFAPGSAQHSHAFLPFSGGSRNCIGKQFAMNELKVATALTLLRFELLPDPTRIPIPIARLVLKSKNGIHLRLRRLPNPCEDKDQL
notes: purchased Gentest (Huntsville, AL), now a part of Discovery Life Sciences lot 2402280; host or cells: insect cells, recombinant baculovirus
Turning to B1, in data set [2], the Michaelis constant (Km) stood at 189 ± 37 µM and the turnover number (kcat) worked out at 67 ± 18 min⁻¹.

Source of the values: publication PMC12191924, “A new naphthalene-based fluorogenic substrate for cytochrome P450 4A11” (Biochemical Journal, 2025).
